# Key:
# [1] = system: MC38 cells with CRISPR-based NQO1 Knockout; assay: Cell survival of NQO1 knockout MC38 cells; assay type: cell-based, murine; settings: 3 hr exposure, survival 48 hr later
# Description: (FIG. 1A) NQO1 positive tumor cell lines MC38, TC-1 and Ag104Ld and NQO1 negative cell lines Panc02 and B16 grown in 48-well plates were treated with β-lap (0-8 μM) for a 3 hr followed by washing and replacing medium. Cell viability was determined by Sulforhodamine B (SRB) Assay 4 days later. […] (FIG. 1C) MC38 cells with CRISPR-based NQO1 Knockout (MC38 NQO1KO #5) planted in 96-well plates were exposed to β-lap for 3 hr and cell survival was assessed 48 hr later. […] (FIG. 1E) MC38 cells were exposed to a lethal dose of β-lap (4 μM) for indicated times, then stained with 7-AAD and Annexin V followed by flow cytometry analysis. […] (FIG. 1H) MC38 and B16 NQO1 #1 cells were exposed to β-lap for a 3 hr. Catalase (1000 U/ml) was added and cell survival was assessed 48 hr later. […] Tumor growth was monitored twice a week.
# FIGS. 17A-I (related to FIGS. 1A-J). […] (FIG. 17A) NQO1 expression in different murine cancer cell lines was determined by western blotting assay. […] Cell viability was determined by Sulforhodamine B (SRB) Assay 48 hr later. […] Cell viability was determined by SRB Assay 48 hr later. […] Catalase (1000 U/ml) was added and cell viability was assessed 48 hr later. […] Tumor growth was monitored twice a week. […] Data are shown as mean±SEM. **P<0.01, ***P<0.001, ****P<0.0001 determined by unpaired student t-test (FIG. 17G) or two-way ANOVA (FIG. 17H and FIG. 17I). […]
# [2] = system: tumor-infiltrating immune cells; assay: Flow cytometric analysis of immune cells in tumor and organs; assay type: in vivo, mice
# Description: (FIGS. 11A-B) Single cells were conducted from MC38 (FIG. 11A) or TC-1 (FIG. 11B) tumor tissues after 3 days of β-lap treatment. The frequency of CD11b+ Gr1+ cells were then analyzed by flow cytometry. (FIGS. 11C-D) C57BL/6 WT mice (n=5/group) were inoculated subcutaneously (s.c.) with 6×10^5 MC38 (FIG. 11C) or 1×10^5 TC-1 (FIG. 11D) cells and treated intratumorally (i.t.) with 0.3 (mg) of β-lap or vehicle on day 9, day 12, and day 15. Anti-Ly6G blocking Ab (200 μg) were intraperitoneally administered twice a week, starting on day 8. Tumor growth was monitored twice a week. Data are shown as mean±SEM from two to three independent experiments. **P<0.01, ***P<0.001, ****P<0.0001 determined by two-way ANOVA.
# (FIG. 18A) B16 NQO1 #1 cells were subcutaneously transplanted into C57BL/6 WT and Rag1KO mice (n=5/group), respectively. Tumor bearing mice were treated with β-lap (0.3 mg, i.t.) every other day for four times. (FIG. 18B) Changes of the immune cells in the tumor microenvironment 7 days after β-lap treatment. […] 7 days after the last treatment, tumor tissue was removed and digested, and immune cells were analyzed with flow cytometer (unpaired student t-test was used to analyze the significance of changes, *P<0.05, **P<0.01). […]
# 6×10^5 MC38 cells were subcutaneously transplanted into C57BL/6 mice (n=3/group). […] (FIG. 23B) Quantification of immune populations from vehicle and IB-DNQ treated tumors. […] CFSE labeled splenocytes were treated with lethal dose IB-DNQ for 4 h followed by washing and stimulation with anti-CD3 (1 μg/ml) and anti-CD28 (2 μg/ml) for 48 h, proliferative CD8 T cells were then analyzed by flow cytometry assay. […] 24 h later, cell death was analyzed by flow cytometry. […]
# Naïve (n=5/group) and IB-DNQ-cured MC38 tumor-free (n=7/group) C57BL/6 mice were re-challenged subcutaneously with 3×10^6 MC38 cells on the opposite site from the primary tumor 60 days after complete rejection. […] (FIG. 26F) DCs from LNs of tumor-free (TF) or tumor-bearing mice were stimulated with antigen induced by IB-DNQ (1 μM) for 5 h, then CD44 expression on DCs was assessed.
smiles,measurement,setting,value
"CC1(C)CCC2=C(O1)c1ccccc1C(=O)C2=O [β-lap, β-lapachone]",response to β-lap (cell survival),[1],resistance to β-lap treatment
same,T cells in treated tumors,"[2]; MC38, 7 days after β-lap 0.3 mg i.t. two times",increase in CD4^+ and CD8^+ T cells
same,"CD45+ cells, CD8+ T cells and CD8+ T cell:Treg cell ratio in tumor tissues","[2]; MC38-OVA, 12 days after initial treatment",significant increase
same,tumor-infiltrating neutrophils (CD11b+Gr1+),[2]; after 3 days of β-lap treatment,significantly increased

# Source: patent US20220160703A1, “TUMOR-SELECTIVE COMBINATION THERAPY” (The Board of Regents of The University of Texas System, priority 2019, published 2022)
